Reference: patent publication US9907859B2 (priority 2010, dated 2018)
Values after ≈ are worked out from the molar mass of the structure shown. Read-outs that look alike come from different tables or passages of the source.

Tests used:
[1] = tested on: camelpox; conditions: read-out: 50% effective concentration [EC50], inhibition of virus replication; cited from earlier work
[2] = rabbit, in vivo
[3] = mouse, in vivo; for AUC0-24: po, 300 mg/kg
[4] = in vivo; conditions: both, cynomolgus monkey; for AUC(0-inf): AUCINF—obs; for bioavailability: cynomolgus, po
[5] = cynomolgus monkey, in vivo
[6] = in vivo; conditions: for AUC(0-t) / Cmax / half-life / clearance: iv
[7] = New Zealand White, rabbit, in vivo
[8] = in vivo; conditions: New Zealand White, rabbit, po, 100 mg/kg
[9] = in vivo
[10] = physchem; conditions: 70 °C, aqueous with cosolvent or surfactant or cyclodextrin
[11] = tested on: vaccinia virus (VV); conditions: in vitro, read-out: 50% effective concentration [EC50], inhibition of virus replication; cited from earlier work
[12] = both, New Zealand White, rabbit, in vivo, po, 100 mg/kg
[13] = tested on: VV; conditions: in vivo; cited from earlier work
[14] = female, CD-1, mouse, in vivo; for Cmax: iv
[15] = tested on: VV; conditions: mouse, in vivo; cited from earlier work
[16] = tested on: variola viruses; conditions: in vitro, read-out: 50% effective concentration [EC50], inhibition of virus replication; cited from earlier work

In the case of O=C(NN1C(=O)C2C3C=CC(C4CC34)C2C1=O)c1ccc(C(F)(F)F)cc1 (stereo not shown) [ST-246, 4-trifluoromethyl-N-(3,3a,4,4a,5,5a,6,6a-octahydro-1,3-dioxo-4,6-ethenocycloprop[f]isoindol-2(1H)-yl)-benzamide], the EC50 [1] is listed as at most 70 nM, the “time to full recovery” value ([2]; both, New Zealand White, iv, 60 mg/kg) is listed as 30 to 60 min and the tolerability [2] is listed as “well-tolerated”. For the same compound, the tolerability ([2]; 3 mg/kg) was “well-tolerated”, the tolerability ([2]; iv, 1 mg/kg) was “well tolerated” and the clinical signs ([2]; iv, 60 mg/kg) was “lethargy, labored breathing and narcosis”. The “increase of apparent clearance after oral dosing” value ([3]; female, BALB/c) was “approximately 10 fold”, the AUC0-24 ([3]; female) was 688.685 µg·h/mL and the AUC0-24 ([3]; male) was 669.961 µg·h/mL. It also gave an AUC(0-t) ([4]; iv, 1 mg/kg) of 1880 ± 455 ng·h/mL, an AUC(0-inf) ([4]; iv, 1 mg/kg) of 1940 ± 459 ng·h/mL and a clearance ([4]; iv, 1 mg/kg, CL) of 8.95 mL/min/kg. The Cmax ([4]; iv, 1 mg/kg) was 384 ± 112 ng/mL, the half-life ([4]; iv, 1 mg/kg, T1/2) was 396 ± 360 min and the Tmax ([4]; iv, 1 mg/kg) was 4 h. For the same compound, the AUC(0-t) ([4]; iv, 3 mg/kg) was 5650 ± 784 ng·h/mL, the AUC(0-inf) ([4]; iv, 3 mg/kg) was 5830 ± 870 ng·h/mL and the clearance ([4]; iv, 3 mg/kg, CL) was 8.72 mL/min/kg. The Cmax ([4]; iv, 3 mg/kg) was 1050 ± 185 ng/mL, the half-life ([4]; iv, 3 mg/kg, T1/2) was 510 ± 192 min and the Tmax ([4]; iv, 3 mg/kg) was 4 h. It also gave an AUC(0-t) ([4]; iv, 10 mg/kg) of 21100 ± 3450 ng·h/mL, an AUC(0-inf) ([4]; iv, 10 mg/kg) of 21300 ± 3400 ng·h/mL and a clearance ([4]; iv, 10 mg/kg, CL) of 7.97 mL/min/kg. The Cmax ([4]; iv, 10 mg/kg) was 4400 ± 935 ng/mL, the half-life ([4]; iv, 10 mg/kg, T1/2) was 516 ± 78 min and the Tmax ([4]; iv, 10 mg/kg) was 4 h. It also gave an AUC(0-inf) ([4]; iv, 15 mg/kg) of 32500 ± 5700 ng·h/mL, a clearance ([4]; iv, 15 mg/kg, CL) of 5.85 mL/min/kg and a Cmax ([4]; iv, 15 mg/kg) of 7360 ± 1470 ng/mL. It also gave a half-life ([4]; iv, 15 mg/kg, T1/2) of 546 ± 156 min, a Tmax ([4]; iv, 15 mg/kg) of 4 h and an AUC(0-inf) ([4]; iv, 20 mg/kg) of 59600 ± 10100 ng·h/mL. For the same compound, the clearance ([4]; iv, 20 mg/kg, CL) was 5.88 mL/min/kg, the Cmax ([4]; iv, 20 mg/kg) was 11800 ± 2000 ng/mL and the half-life ([4]; iv, 20 mg/kg, T1/2) was 522 ± 150 min. The Tmax ([4]; iv, 20 mg/kg) was 4 h, the AUC(0-inf) ([4]; iv, 30 mg/kg) was 100000 ± 18000 ng·h/mL and the clearance ([4]; iv, 30 mg/kg, CL) was 5.12 mL/min/kg. It also gave a Cmax ([4]; iv, 30 mg/kg) of 20100 ± 4200 ng/mL, a half-life ([4]; iv, 30 mg/kg, T1/2) of 468 ± 42 min and a Tmax ([4]; iv, 30 mg/kg) of 4 h. It also gave a clearance ([4]; iv, clearance) of about 8.33 mL/min/kg, a half-life ([4]; iv, elimination half-lives) of 396 to 546 min and a half-life ([4]; iv, terminal elimination half-life) of 396 to 516 min. For the same compound, the half-life ([4]; terminal elimination half-life) was 534 min, the bioavailability ([4]; 3 mg/kg) was 77% and the bioavailability ([4]; 20 mg/kg) was 31%. The bioavailability ([4]; 30 mg/kg) was 31%, the “onset of tremors after end of infusion” value ([5]; both, 30 mg/kg) was at most 13 min and the “resolution of tremors after end of infusion” value ([5]; both, 30 mg/kg) was “approximately 2 hours”. The clinical signs [5] was “no clinical signs were observed”, the clinical signs ([5]; 20 mg/kg) was “Tremors were not observed” and the bioavailability ([6]; female, BALB/c (oral), CD-1 (IV), mouse, 30 mg/kg) was about 41%. It also gave an AUC(0-t) ([6]; female, BALB/c, mouse, 2.3 mg/kg, AUC0-24) of 87.8 µg·h/mL, a Cmax ([6]; female, BALB/c, mouse, 2.3 mg/kg, Cmax) of 22.4 µg/mL and an AUC(0-t) ([6]; female, BALB/c, mouse, 3 mg/kg, AUC0-24) of 100 µg·h/mL. It also gave a Cmax ([6]; female, BALB/c, mouse, 3 mg/kg, Cmax) of 78.4 µg/mL, an AUC(0-t) ([6]; female, BALB/c, mouse, 7.6 mg/kg, AUC0-24) of 218 µg·h/mL and a Cmax ([6]; female, BALB/c, mouse, 7.6 mg/kg, Cmax) of 37.6 µg/mL. It also gave an AUC(0-t) ([6]; female, BALB/c, mouse, 30 mg/kg, AUC0-24) of 300 µg·h/mL, a Cmax ([6]; female, BALB/c, mouse, 30 mg/kg, Cmax) of 149 µg/mL and an AUC(0-t) ([6]; female, BALB/c, mouse, 34.3 mg/kg, AUC0-24) of 873 µg·h/mL. The Cmax ([6]; female, BALB/c, mouse, 34.3 mg/kg, Cmax) was 162 µg/mL, the half-life ([6]; female, CD-1, mouse) was 150 to 270 min and the clearance ([6]; female, CD-1, mouse, 3 mg/kg) was 0.717 mL/min/kg. For the same compound, the half-life ([6]; female, CD-1, mouse, 3 mg/kg) was 270 min, the AUC(0-t) ([6]; female, CD-1, mouse, 3 mg/kg, AUC0-24) was 67.9 µg·h/mL and the AUC(0-t) ([6]; female, CD-1, mouse, 3 mg/kg, AUC0-24 hr) was 68 µg·h/mL. For the same compound, the Cmax ([6]; female, CD-1, mouse, 3 mg/kg, Cmax) was 16.7 µg/mL, the clearance ([6]; female, CD-1, mouse, 10 mg/kg) was 0.417 mL/min/kg and the half-life ([6]; female, CD-1, mouse, 10 mg/kg) was 168 min. For the same compound, the AUC(0-t) ([6]; female, CD-1, mouse, 10 mg/kg, AUC0-24) was 408 µg·h/mL, the AUC(0-t) ([6]; female, CD-1, mouse, 10 mg/kg, AUC0-24 hr) was 408 µg·h/mL and the Cmax ([6]; female, CD-1, mouse, 10 mg/kg, Cmax) was 63.5 µg/mL. The clearance ([6]; female, CD-1, mouse, 30 mg/kg) was 0.7 mL/min/kg, the half-life ([6]; female, CD-1, mouse, 30 mg/kg) was 150 min and the AUC(0-t) ([6]; female, CD-1, mouse, 30 mg/kg, AUC0-24) was 709 µg·h/mL. It also gave an AUC(0-t) ([6]; female, CD-1, mouse, 30 mg/kg, AUC0-24 hr) of 709 µg·h/mL, a Cmax ([6]; female, CD-1, mouse, 30 mg/kg, Cmax) of 127 µg/mL and a clearance ([6]; female, CD-1, mouse, 75 mg/kg) of 1 mL/min/kg. It also gave a half-life ([6]; female, CD-1, mouse, 75 mg/kg) of 168 min, an AUC(0-t) ([6]; female, CD-1, mouse, 75 mg/kg, AUC0-24) of 1250 µg·h/mL and an AUC(0-t) ([6]; female, CD-1, mouse, 75 mg/kg, AUC0-24 hr) of 1250 µg·h/mL. For the same compound, the Cmax ([6]; female, CD-1, mouse, 75 mg/kg, Cmax) was 238 µg/mL, the Cmax ([6]; female, CD-1, mouse, 75 mg/kg, mean Cmax) was 238 µg/mL and the Cmax ([6]; female, mouse, 30 mg/kg, Cmax) was 120 µg/mL. The AUC(0-t) ([6]; male, BALB/c, mouse, 2.3 mg/kg, AUC0-24) was 73.3 µg·h/mL, the Cmax ([6]; male, BALB/c, mouse, 2.3 mg/kg, Cmax) was 20 µg/mL and the AUC(0-t) ([6]; male, BALB/c, mouse, 7.6 mg/kg, AUC0-24) was 170 µg·h/mL. For the same compound, the Cmax ([6]; male, BALB/c, mouse, 7.6 mg/kg, Cmax) was 53.8 µg/mL, the AUC(0-t) ([6]; male, BALB/c, mouse, 34.3 mg/kg, AUC0-24) was 798 µg·h/mL and the Cmax ([6]; male, BALB/c, mouse, 34.3 mg/kg, Cmax) was 191 µg/mL. The AUC0-24 hr ([7]; both, iv, 3 mg/kg) was 3.39 ± 1.07 µg·h/mL, the CL ([7]; both, iv, 3 mg/kg) was 966 ± 363 mL/h/kg and the “mean maximum plasma concentration” value ([7]; both, iv, 30 mg/kg) was 38.5 µg/mL. The peak plasma concentration ([7]; female, 3 mg/kg) was 4345 ng/mL, the peak plasma concentration ([7]; male, 3 mg/kg) was 7225 ng/mL and the AUC(0-t) ([8]; both) was 19800 ng·h/mL. For the same compound, the CL/F ([8]; both) was 120 mL/min/kg, the Cmax ([8]; both) was 2860 ng/mL and the half-life ([8]; both) was 222 min. For the same compound, the AUC(0-t) ([8]; female) was 8180 ng·h/mL, the Cmax ([8]; female) was 1230 ng/mL and the half-life ([8]; female) was 78 min. The AUC(0-t) ([8]; male) was 26400 ng·h/mL, the Cmax ([8]; male) was 4480 ng/mL and the half-life ([8]; male) was 360 min. The time to recovery ([9]; female, CD-1, mouse, iv, 75 mg/kg) was 2 to 3 h, the tolerability ([9]; mouse) was “well-tolerated” and the “toxicity after bolus IV injection” value ([9]; mouse, iv, 34 mg/kg) was “some dose-related toxicity and mortality”. For the same compound, the clinical signs ([9]; mouse, iv, 75 mg/kg) was “unsteady gait”, the clinical signs ([9]; mouse, iv, 100 mg/kg) was “clinical signs of labored breathing and lethargy” and the solubility [10] was 21.2 mg/mL (≈ 56.4 mM). The EC50 [11] was at most 70 nM, the AUC0-24 hr [12] was 19.8 ± 16.6 µg·h/mL and the “preventing or reducing mortality” value [13] was “highly effective in preventing or reducing mortality”. For the same compound, the “toxicity in animal model” value [13] was “nontoxic”, the “average plasma concentration at the end of infusion” value ([14]; 75 mg/kg) was 238, 333 ng/mL and the Cmax ([14]; 10 mg/kg) was 64 µg/mL. For the same compound, the Cmax ([14]; 30 mg/kg) was 147.333 µg/mL, the Cmax ([14]; 75 mg/kg) was 238 µg/mL and the tail lesions [15] was “significantly reduced”. The EC50 [16] was at most 70 nM.
